# Measurements: ChEMBL document CHEMBL3751764, “Synthesis and in vitro antiproliferative activity of novel pyrazolo[3,4-d]pyrimidine derivatives” (Medchemcomm, 2015)
# Key:
# [1] = Cytotoxicity against human COLO205 cells after 72 hrs by SRB assay; format: functional; details: COLO 205, 72 h
# [2] = Cytotoxicity against human HCT116 cells after 72 hrs by SRB assay; format: functional; details: HCT-116, 72 h
# [3] = Cytotoxicity against human SF539 cells after 72 hrs by SRB assay; format: functional; details: SF-539, 72 h
# MDA-MB-435 = experiment: Cytotoxicity against human MDA-MB-435 cells after 72 hrs by SRB assay; format: functional; details: MDA-MB-435, 72 h
# SK-MEL-2 = experiment: Cytotoxicity against human SK-MEL-2 cells after 72 hrs by SRB assay; format: functional; details: SK-MEL-2, 72 h
# [4] = Cytotoxicity against human UACC257 cells after 72 hrs by SRB assay; format: functional; details: UACC-257, 72 h
# [5] = Cytotoxicity against human OVCAR5 cells after 72 hrs by SRB assay; format: functional; details: OVCAR-5, 72 h
# [6] = Cytotoxicity against human SKOV3 cells after 72 hrs by SRB assay; format: functional; details: SK-OV-3, 72 h
# [7] = Cytotoxicity against human DU145 cells after 72 hrs by SRB assay; format: functional; details: DU-145, 72 h
# MCF7 = experiment: Cytotoxicity against human MCF7 cells after 72 hrs by SRB assay; format: functional, cell-based; details: MCF7, 72 h
# A549 = experiment: Downregulation of cyclin D1 expression in human A549 cells by immunohistochemical analysis relative to control; format: functional
# [8] = read-out: LC50 (the source's name)
compound,measurement,setting,value
O=C(NC1CCCCC1)c1ccc(Nc2ncnc3c2cnn3-c2ccccc2)cc1,GI50,[1],12.5 µM
same,TGI,[1],> 100 µM
same,CC50,[1]; [8],> 100 µM
same,GI50,[2],4.01 µM
same,TGI,[2],> 100 µM
same,CC50,[2]; [8],> 100 µM
same,GI50,[3],3.81 µM
same,TGI,[3],17.1 µM
same,CC50,[3]; [8],49 µM
same,GI50,MDA-MB-435,67.8 µM
same,TGI,MDA-MB-435,> 100 µM
same,CC50,MDA-MB-435; [8],> 100 µM
same,GI50,SK-MEL-2,13.6 µM
same,TGI,SK-MEL-2,36.2 µM
same,CC50,SK-MEL-2; [8],96.3 µM
same,GI50,[4],6.42 µM
same,TGI,[4],> 100 µM
same,CC50,[4]; [8],> 100 µM
same,GI50,[5],15.2 µM
same,TGI,[5],95.2 µM
same,CC50,[5]; [8],> 100 µM
same,GI50,[6],2.95 µM
same,TGI,[6],8.7 µM
same,CC50,[6]; [8],51.1 µM
same,GI50,[7],10.6 µM
same,TGI,[7],48.1 µM
same,CC50,[7]; [8],> 100 µM
same,GI50,MCF7,74.1 µM
same,LC50,MCF7,> 100 µM
same,TGI,MCF7,> 100 µM
same,Activity,A549,51%
